Values quoted from earlier work as cited in patent publication US20160074380A1, “Treatment Of Neurodegenerative Diseases With Combination Of Laquinimod And Fingolimod” (TEVA PHARMACEUTICAL INDUSTRIES LTD., priority 2014, published 2016).

Tested on: mouse-cultured cortical cells
Conditions: pretreatment; Di Menna, 2013; cited from earlier work

Q: For CCCCCCCCc1ccc(CC[C@](N)(CO)COP(=O)(O)O)cc1 [FTY 720-P, fingolimod-phosphate], which “protection of neurons against NMDA toxicity” value is on record?
A: protected neurons against NMDA toxicity

Q: With CCCCCCCCCCCCC/C=C/[C@@H](O)[C@@H](N)COP(=O)(O)O [S1P, sphingosine 1-phosphate] as the molecule, how does the “protection of neurons against NMDA toxicity” value read?
A: protected neurons against NMDA toxicity
